According to PubChem BioAssay (NCI):
Where “and” joins values, the source holds several entries; their conditions need not be identical. Equal entries are not always repeated.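 96-well plates; 48 h exposure; 5 concentrations. Endpoints by linear interpolation between flanking doses. Not reached: highest tested concentration assigned. The concentration for 50% growth inhibition is given as GI50. TGI denotes the concentration required for complete inhibition of growth.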

Columns and labels:
Assay in all cases: NCI-60 cell line screen, 48 h
[1] = test system: 786-0 renal
[2] = test system: A498 renal
[3] = test system: A549 NSCLC
[4] = test system: ACHN renal
[5] = test system: BT-549 breast
[6] = test system: CCRF-CEM leukemia
[7] = test system: COLO 205 colon
[8] = test system: DU-145 prostate
[9] = test system: EKVX NSCLC
[10] = test system: HCC-2998 colon
[11] = test system: HCT-116 colon
[12] = test system: HCT-15 colon
[13] = test system: HL-60(TB) leukemia
[14] = test system: HOP-62 NSCLC
[15] = test system: HOP-92 NSCLC
[16] = test system: HS 578T breast
[17] = test system: HT29 colon
[18] = test system: IGROV1 ovarian
[19] = test system: K-562 leukemia
[20] = test system: KM12 colon
[21] = test system: LOX IMVI melanoma
[22] = test system: M14 melanoma
[23] = test system: MALME-3M melanoma
[24] = test system: MCF7 breast
[25] = test system: MDA-MB-231 breast
[26] = test system: MDA-MB-435
[27] = test system: MOLT-4 leukemia
[28] = test system: NCI-H226 lung
[29] = test system: NCI-H23 lung
[30] = test system: NCI-H460 lung
[31] = test system: NCI-H522 lung
[32] = test system: NCI/ADR-RES ovarian
[33] = test system: OVCAR-3 ovarian
[34] = test system: OVCAR-4 ovarian
[35] = test system: OVCAR-5 ovarian
[36] = test system: OVCAR-8 ovarian
[37] = test system: PC-3 prostate
[38] = test system: RPMI-8226 leukemia
[39] = test system: SF-268 CNS
[40] = test system: SF-295 CNS
[41] = test system: SF-539 CNS
[42] = test system: SK-MEL-28 melanoma
[43] = test system: SK-MEL-5 melanoma
[44] = test system: SK-OV-3 ovarian
[45] = test system: SN12C renal
[46] = test system: SNB-19 CNS
[47] = test system: SNB-75 CNS
[48] = test system: SR leukemia
[49] = test system: SW-620 colon
[50] = test system: TK-10 renal
[51] = test system: U251 CNS
[52] = test system: UACC-257 melanoma
[53] = test system: UACC-62 melanoma
[54] = test system: UO-31 renal

COC(=O)[C@@H](C)C[C@H](Cc1ccccc1)NC(=O)c1csc([C@@H](C[C@H](C(C)C)N(C)C(=O)C2(NC(=O)[C@H]3CCCCN3C)CCC2)OC(C)=O)n1
TGI [1]: > 25000 nM
GI50 [2]: 16.4 nM and 5.48 nM
TGI [2]: 87.4 nM
GI50 [3]: 56.4 nM and 13.6 nM
TGI [3]: > 25000 nM
GI50 [4]: 24.9 nM and 19.3 nM
TGI [4]: > 25000 nM
GI50 [5]: 2.5 nM
TGI [5]: 15.7 nM
GI50 [6]: 5.33 nM and 2.5 nM
TGI [6]: > 25000 nM
GI50 [7]: 3.35 nM and 2.5 nM
TGI [7]: 120 nM and 18.2 nM
GI50 [8]: 3.51 nM and 2.5 nM
TGI [8]: > 25000 nM
TGI [9]: > 25000 nM
GI50 [10]: 5.01 nM and 6.28 nM
TGI [10]: > 25000 nM
GI50 [11]: 4.47 nM and 2.5 nM
TGI [11]: 2520 nM
GI50 [12]: 94.4 nM and 66.5 nM
TGI [12]: > 25000 nM
GI50 [13]: 1.16 nM and < 2.5 nM
TGI [13]: 5.69 nM and < 2.5 nM
GI50 [14]: 36.7 nM and 7.06 nM
TGI [14]: > 25000 nM
GI50 [15]: 0.886 nM and 2.5 nM
GI50 [16]: 46.3 nM
GI50 [17]: 2.69 nM and 2.5 nM
TGI [17]: > 25000 nM
GI50 [18]: 0.863 nM and 2.5 nM
TGI [18]: > 25000 nM
GI50 [19]: 2.52 nM and 2.5 nM
TGI [19]: > 25000 nM
GI50 [20]: 3.19 nM and 5.22 nM
TGI [20]: > 25000 nM
GI50 [21]: 7.71 nM and 2.5 nM
TGI [21]: > 25000 nM
GI50 [22]: 4.13 nM and 2.5 nM
TGI [22]: 56.4 nM and 10.7 nM
GI50 [23]: 2.5 nM
TGI [23]: > 25000 nM
GI50 [24]: 0.508 nM and 2.5 nM
TGI [24]: > 25000 nM
GI50 [25]: 5.84 nM and 2.5 nM
TGI [25]: 152 nM
GI50 [26]: 0.325 nM and < 2.5 nM
TGI [26]: 1.79 nM and < 2.5 nM
GI50 [27]: 10.7 nM and 7.14 nM
TGI [27]: > 25000 nM
GI50 [28]: 54.7 nM
TGI [28]: > 25000 nM
GI50 [29]: 7.79 nM and 8.92 nM
TGI [29]: > 25000 nM
GI50 [30]: 5.49 nM and 5.7 nM
TGI [30]: > 25000 nM
GI50 [31]: 1.65 nM
GI50 [32]: 16900 nM
TGI [32]: > 25000 nM
GI50 [33]: 0.487 nM and 2.5 nM
TGI [33]: 10.1 nM and 6.72 nM
TGI [34]: > 25000 nM
GI50 [35]: 78.6 nM and 9.9 nM
TGI [35]: > 25000 nM
GI50 [36]: 16.8 nM and 6.26 nM
TGI [36]: > 25000 nM
GI50 [37]: 4.06 nM and 2.5 nM
TGI [37]: > 25000 nM
GI50 [38]: 2.59 nM and 2.5 nM
TGI [38]: > 25000 nM
GI50 [39]: 6.61 nM and 17.5 nM
TGI [39]: > 25000 nM
GI50 [40]: 16.9 nM and 4.04 nM
TGI [40]: > 25000 nM
GI50 [41]: 7.84 nM and 4.41 nM
TGI [41]: 51.8 nM and 13.7 nM
GI50 [42]: 30.7 nM and 6.67 nM
TGI [42]: > 25000 nM
GI50 [43]: 4.01 nM and 2.5 nM
TGI [43]: 146 nM and 125 nM
GI50 [44]: 15.6 nM and 5.04 nM
TGI [44]: > 25000 nM
GI50 [45]: 8.7 nM and 17 nM
TGI [45]: > 25000 nM
GI50 [46]: 7.08 nM
GI50 [47]: 3.51 nM and 3.19 nM
TGI [47]: > 25000 nM
GI50 [48]: 0.495 nM and 2.5 nM
TGI [48]: > 25000 nM
GI50 [49]: 5.13 nM and 2.5 nM
TGI [49]: > 25000 nM
TGI [50]: > 25000 nM
GI50 [51]: 5.45 nM and 6.27 nM
TGI [51]: > 25000 nM
GI50 [52]: > 25000 nM
TGI [52]: > 25000 nM
GI50 [53]: 2.44 nM and 2.5 nM
TGI [53]: > 25000 nM
GI50 [54]: 734 nM and 157 nM
TGI [54]: > 25000 nM
